Assay: cn = amount concentration of the nth substance listed, in mol/dm3
Details: Liquid, Taylor dispersion method

Work on OC[C@H]1O[C@@](CO)(O[C@H]2O[C@H](CO)[C@@H](O)[C@H](O)[C@H]2O)[C@@H](O)[C@@H]1O [D-sucrose] + O yielded a binary diffusion coefficient (298.15 K, c1 = 0.1) of 5.26e-10 m2/s.
For [Cl-].[K+] [potassium chloride] + O, the binary diffusion coefficient (298.15 K, c1 = 0.1) was 1.81e-09 m2/s.
With OC[C@H]1O[C@@H]2O[C@H]3[C@H](O)[C@@H](O)[C@@H](O[C@H]4[C@H](O)[C@@H](O)[C@@H](O[C@H]5[C@H](O)[C@@H](O)[C@@H](O[C@H]6[C@H](O)[C@@H](O)[C@@H](O[C@H]7[C@H](O)[C@@H](O)[C@@H](O[C@H]8[C@H](O)[C@@H](O)[C@@H](O[C@H]1[C@H](O)[C@H]2O)O[C@@H]8CO)O[C@@H]7CO)O[C@@H]6CO)O[C@@H]5CO)O[C@@H]4CO)O[C@@H]3CO [β-cyclodextrin] + O the binary diffusion coefficient (298.15 K, c1 = 0.002) was 3.24e-10 m2/s, the binary diffusion coefficient (298.15 K, c1 = 0.004) was 3.23e-10 m2/s and the binary diffusion coefficient (298.15 K, c1 = 0.006) was 3.21e-10 m2/s. For the same compound, the binary diffusion coefficient (298.15 K, c1 = 0.008) was 3.18e-10 m2/s, the binary diffusion coefficient (303.15 K, c1 = 0.002) was 3.89e-10 m2/s and the binary diffusion coefficient (303.15 K, c1 = 0.004) was 3.88e-10 m2/s. The binary diffusion coefficient (303.15 K, c1 = 0.006) was 3.81e-10 m2/s, the binary diffusion coefficient (303.15 K, c1 = 0.008) was 3.78e-10 m2/s and the binary diffusion coefficient (308.15 K, c1 = 0.002) was 4.3e-10 m2/s. For the same compound, the binary diffusion coefficient (308.15 K, c1 = 0.004) was 4.28e-10 m2/s, the binary diffusion coefficient (308.15 K, c1 = 0.006) was 4.27e-10 m2/s and the binary diffusion coefficient (308.15 K, c1 = 0.008) was 4.23e-10 m2/s. The binary diffusion coefficient (312.15 K, c1 = 0.002) was 4.56e-10 m2/s, the binary diffusion coefficient (312.15 K, c1 = 0.004) was 4.54e-10 m2/s and the binary diffusion coefficient (312.15 K, c1 = 0.006) was 4.54e-10 m2/s. For the same compound, the binary diffusion coefficient (312.15 K, c1 = 0.008) was 4.53e-10 m2/s.

Reference: the NIST ThermoML archive (doi:10.1021/je060092t)
